{"source": "patent US6265177A", "about": "“Enzyme assay for mutant firefly luciferase” (priority 1997, dated 2001)", "format_in_all_cases": "biochemical", "conditions_in_all_cases": "21° C., 20 mM Tricine pH 7.8, 470 μM D-luciferin, ATP 6.25-800 μM, crude cell extract", "key": {"[1]": {"biological_target": "T1, Photinus pyralis luciferase mutant H245Q (His245Gln), SEQ ID NO: 6 (Photinus pyralis, UniProt P08659, H245Q)", "T1 construct": "ID No. 6; made in house; host or cells: E. coli JM109, crude lysed cell extract, plasmid pPW601a", "T1 sequence (P08659 whole entry H245Q)": "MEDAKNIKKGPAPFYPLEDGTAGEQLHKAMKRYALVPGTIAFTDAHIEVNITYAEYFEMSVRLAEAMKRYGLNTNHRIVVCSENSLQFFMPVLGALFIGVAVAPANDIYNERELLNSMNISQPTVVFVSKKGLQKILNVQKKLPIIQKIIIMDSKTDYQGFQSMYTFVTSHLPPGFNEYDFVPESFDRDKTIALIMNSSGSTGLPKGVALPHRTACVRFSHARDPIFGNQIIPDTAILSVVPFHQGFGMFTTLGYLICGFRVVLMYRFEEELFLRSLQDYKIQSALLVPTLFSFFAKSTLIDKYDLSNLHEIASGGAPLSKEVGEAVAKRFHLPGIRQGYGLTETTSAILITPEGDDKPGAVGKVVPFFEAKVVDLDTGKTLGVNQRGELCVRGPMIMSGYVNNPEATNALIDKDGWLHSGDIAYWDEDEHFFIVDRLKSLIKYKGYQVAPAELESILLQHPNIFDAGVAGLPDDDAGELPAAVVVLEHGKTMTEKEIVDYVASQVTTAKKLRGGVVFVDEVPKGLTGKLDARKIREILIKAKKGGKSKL", "assay": "Luciferase assay of Km for MgATP, mutant H245Q", "experimental": "(§1) SITE DIRECTED MUTAGENESIS: Three mutagenic oligonucleotides were used to create the mutations H245A, N and Q (Ala, Asn, or Gln--see Seq ID Nos. 2, 3 & 4). The equivalent wild-type sequence is shown at Seq ID No. 5. […] The mutagenesis was carried out in accordance with the kit instructions of kit supplied by Clontech laboratories Inc, Palo Alto, Calif. USA.\nThe amino acid sequence of H245Q is shown in Seq. ID No. 6.\n(§2) CELL CULTURE AND EXTRACTION: E. coli JM109 transformants were grown to an OD600 =1.0. Aliquots of cells expressing mutant luciferases from plasmid pPW601a, were subjected to lysis as described in the Promega technical bulletin and the lysed extracts were then stored on ice prior to assay.\n(§3) ASSAY OF Km OF MUTANT LUCIFERASES: luciferase assays were performed at 21° C. using 100 μl of assay buffer (20 mM Tricine pH 7.8 containing 2.0 mM MgSO4, 0.1 mM EDTA, 33 mM dithiotheitol, 470 μM D-luciferin and ATP in the concentration range 6.25-800 μM). Each assay contained 5-10 μl of crude cell extract.\n(§4) Such plots kan be used to determine the Km."}, "[2]": {"biological_target": "T2, Photinus pyralis luciferase, recombinant wild type (r Wild Type), luc gene SEQ ID NO: 1 (Photinus pyralis, UniProt P08659)", "T2 construct": "made in house; host or cells: E. coli JM109, crude lysed cell extract, plasmid pPW601a", "assay": "Luciferase assay of Km for MgATP, recombinant wild type", "experimental": "as §2, §3, §4"}, "[3]": {"biological_target": "T3, Photinus pyralis luciferase mutant H245N (His245Asn) (Photinus pyralis, UniProt P08659, H245N)", "T3 construct": "made in house; host or cells: E. coli JM109, crude lysed cell extract, plasmid pPW601a", "T3 sequence (P08659 whole entry H245N)": "as the sequence (P08659 whole entry H245Q) above, with Q245N counted along it", "assay": "Luciferase assay of Km for MgATP, mutant H245N", "experimental": "as §1, §2, §3, §4"}, "[4]": {"biological_target": "Photinus pyralis luciferase thermostable mutant A215L (printed A21SL) (Photinus pyralis, UniProt P08659, A215L)", "sequence (P08659 whole entry A215L)": "as the sequence (P08659 whole entry H245Q) above, with A215L, Q245H counted along it", "assay": "Luciferase assay of Km for MgATP, thermostable mutant A215L", "experimental": "as §2, §3, §4\n*A215L is a thermostable mutant in which amino acid 215 is substituted with\n[…] (see WO 96/22376 - SECRETARY OF STATE FOR DEFENCE)."}, "[5]": {"biological_target": "T4, Photinus pyralis luciferase mutant H245A (His245Ala) (Photinus pyralis, UniProt P08659, H245A)", "T4 construct": "made in house; host or cells: E. coli JM109, crude lysed cell extract, plasmid pPW601a", "T4 sequence (P08659 whole entry H245A)": "as the sequence (P08659 whole entry H245Q) above, with Q245A counted along it", "assay": "Luciferase assay of Km for MgATP, mutant H245A", "experimental": "as §1, §2, §3, §4"}}}
{"molecule": "Nc1ncnc2c1ncn2[C@@H]1O[C@H](COP(=O)(O)OP(=O)(O)OP(=O)(O)O)[C@@H](O)[C@H]1O", "note": "[MgATP]", "values": [{"measurement": "Km", "setting": "[1]", "result": 1340, "unit": "µM"}, {"measurement": "Km", "setting": "[2]", "result": 66, "unit": "µM"}, {"measurement": "Km", "setting": "[3]", "result": 623, "unit": "µM"}, {"measurement": "Km", "setting": "[4]", "result": 65, "unit": "µM"}, {"measurement": "Km", "setting": "[5]", "result": 442, "unit": "µM"}]}
